Experimental data published in patent EP4796530A1 (Biocells (Beijing) Biotech Co., Ltd., priority 2023, dated 2025).

Key:
[1] = molecular target: T1, NLRP3 (Mus musculus, UniProt Q8R4B8); assay: Inhibition of APOE peptide-induced NLRP3 activation in J774A.1 cells, IL-1β release; type: cell-based; set-up: The mouse macrophage cell line J774A.1 was used, and LPS was used as the first signal; host or cells: J774A.1 mouse monocyte-macrophage cell line; settings: J774.A1, 10 µM compound, 30 µg/mL APOE peptide
Experimental: J774A.1 cells were plated in a 48-well plate at a density of 1.0×10^6 cells/mL, with 300 µL per well. Subsequently, NLRP3 was activated by APOE peptide. The cell culture medium comprises: DMEM (brand: Gibco, Cat. No.: C12430500) + 10% fetal bovine serum (brand: Gibco, Cat. No.: 10099-141) + 1% sodium pyruvate (brand: Gibco, Cat. No.: 11360-070) + 1% penicillin-streptomycin solution (brand: Solarbio, Cat. No.: P1400). The J774A.1 mouse monocyte-macrophage cell line was purchased from the Cell Resource Center of the Institute of Basic Medical Sciences of Chinese Academy of Medical Sciences (Resource No. 1101MOU-PUMC000222). APOE2/3 peptide 1-151 was obtained through recombinant protein expression and purification by Biocells (Beijing) Biotech Co., Ltd. The procedures were as follows: the sequence (SEQ ID NO: 1) shown below was inserted into the pET-28A plasmid and transformed into BL-21(DE3) expression strain; the expression of target protein was induced with IPTG at a low temperature; after collecting the bacteria via centrifugation, ultrasonic disruption was performed; and after centrifugation, the supernatant was purified by nickel ion affinity chromatography (AKTA pure), and then the product was concentrated by ultrafiltration and identified by BCA+protein electrophoresis. Sequence: [formula]
Experimental groups: a negative control group, an APOE treatment control group, and an example compound experimental group.
After the plated J774A.1 cells adhering to the plate, the culture medium was replaced. The culture medium of the APOE treatment control group was replaced with cell culture medium containing 30 µg/mL APOE peptide, the culture medium of the example compound experimental group was replaced with culture medium containing 30 µg/mL APOE peptide combined with the compounds, and the negative control group received cell culture medium. Then, all the groups were incubated overnight. 18 h later, the cell supernatants were collected for IL-1β detection.
Activation of NLRP3 by APOE peptide will result in release of mature IL-1β, and the release can be inhibited by NLRP3 inhibitors. Therefore, the relative change in the amount of IL-1β release may directly reflect NLRP3 inhibitory effect.
In this experimental example, effective inhibition refers to a reduction of 70% or more in the release amount, compared with the release amount of the positive control minus the negative control.

[2] = molecular target: T1, NLRP3; assay: MSU-induced mouse peritonitis model: IL-1β in ascites; type: in vivo, C57BL/6J female mice; set-up: tissue National Institutes for Food and Drug Control; host or cells: C57BL/6J mice in vivo (serum IL-1β in A7, ascites IL-1β in A8); settings: oral gavage; LPS 2 h later, MSU after another 2 h, ascites 30 min later
Experimental: Intraperitoneal injection of LPS and monosodium urate crystals (MSU) in mice can induce the activation of NLRP3 and release of large amounts of IL-1β. […] LPS was purchased from Sigma, Cat. No. L2654. MSU was purchased from Bide Pharmatech Co., Ltd., Cat. No. BD367417. C57BL/6J female mice aged 8 weeks were purchased from National Institutes for Food and Drug Control.
The mice were administered the example compounds via oral gavage. […] Ascites was collected 30 min later, and then IL-1β protein detection was performed on the ascites.
Experimental groups: a model group, and an example compound dosing group.

[3] = Rat plasma pharmacokinetics after intravenous administration (LC-MS); type: in vivo; settings: SD rats, intravenous 2.5 mg/kg; for AUC: read-out: AUC from 1 to 1440 min
Experimental: SD rats were administered intravenously, at a dosage concentration of 2.5 mg/kg in each group. Blood was collected at the time points of 1 min, 30 min, 1 h, 2 h, 4 h, 6 h, and 24 h. The collected blood was centrifuged at 3000 rpm for 10 min at 4 °C to obtain plasma. Acetonitrile was added at a 1:3 volume ratio of plasma: acetonitrile to precipitate proteins. After centrifugation, the supernatant was collected and filtered. The concentration of the compound was detected using LC-MS (Agilent 1260-G6125, SIM mode).
Experimental groups: a vehicle control group, and a dosing group.

[4] = molecular target: T2, NLRP3 (Homo sapiens, UniProt Q96P20); assay: Inhibition curves (IC50) of canonical NLRP3 activation in healthy human whole blood, IL-1β release; type: cell-based; settings: LPS+5 µM Nig canonical activation model
Experimental: 10 mL of human whole blood was collected intravenously aseptically, and plated into a 96-well plate, with 198 µL per well. Then, 2 µL of 100× gradient dilutions of the example compounds at specified concentrations were added, immediately followed by the addition of 10 µL of 21 µg/mL LPS gradient dilution. 3 h later, nigericin with a working concentration of 5 µM or 1 mM ATP was added. After stimulation for 1 h, the whole blood was collected and centrifuged to collect the supernatant. IL-1β in the sample supernatant was detected by ELISA method.
Experimental groups: a negative control group, an LPS-alone incubation control group, an LPS+Nig/ATP positive control group, and a 1 µM example compound experimental group.
10 mL of human whole blood was collected intravenously aseptically. The anticoagulant heparin sodium was added preemptively into a 50 mL centrifuge tube. The collected whole blood was directly plated in a 96-well plate, with 198 µL per well. […] IL-1β in the sample supernatant was detected by ELISA method.
Therefore, the relative change in the amount of IL-1β release may directly reflect NLRP3 inhibitory effect. The inhibitory effect of the compounds varies with different concentrations, and based on this, an inhibition curve can be constructed, and the inhibitory effect of the compounds were assessed by IC50.

[5] = molecular target: T2, NLRP3; assay: Inhibition curves (IC50) of canonical NLRP3 activation (LPS+Nig) in THP-1 cells, IL-1β release; type: cell-based; set-up: host or cells: THP-1 human acute monocytic leukemia cell line, PMA-differentiated; settings: THP-1 cell LPS+Nig activation model
Experimental: Nig was purchased from Shanghai Yuanye Bio-Technology Co., Ltd., Cat. No.: S45490.
The cells were incubated overnight.
Therefore, the relative change in the amount of IL-1β release may directly reflect NLRP3 inhibitory effect. The inhibitory effect of the compounds varies with different concentrations, and based on this, an inhibition curve can be constructed, and the inhibitory effects of the compounds were assessed by IC50.

[6] = molecular target: T1, NLRP3; assay: Inhibition of canonical NLRP3 activation (LPS+ATP/Nig) in J774A.1 cells, IL-1β release by ELISA, single concentration; type: cell-based; set-up: The mouse macrophage cell line J774A.1 was used, and LPS was used as the first signal; host or cells: J774A.1 mouse monocyte-macrophage cell line; settings: J774.A1, 1 µM compound, LPS + 5 mM ATP or 10 µM Nig, compared with the positive control, read-out: inhibition of IL-1β release
Experimental: J774A.1 cells were plated in a 48-well plate at a density of 1.0×10^6 cells/mL, with 300 µL per well. Subsequently, NLRP3 was activated using LPS+5 mM ATP (adenosine triphosphate) or 10 µM Nig (nigericin). […] ATP was purchased from Sigma, Cat. No.: L2654. Nig was purchased from Shanghai Yuanye Bio-Technology Co., Ltd., Cat. No.: S45490.
Experimental groups: a negative control group, an LPS-alone incubation control group, an LPS+ATP or +Nig positive control group, and an example compound experimental group.
After the plated J774A.1 cells adhering to the plate, the culture medium was replaced. For all the groups except the negative control group, the culture medium was completely replaced with cell culture medium containing 1 µg/mL LPS. The negative control group received cell culture medium. Then, all the groups were incubated overnight. 18 h later, the culture medium was replaced again. The culture medium of the example compound experimental group was completely replaced with cell culture medium containing the compounds; while the negative control group, the LPS-alone incubation control group, and the LPS+ATP/Nig positive control group received cell culture medium. 1 h later, the culture mediums of the LPS+ATP/Nig positive control group and the example compound experimental group were completely replaced with cell culture medium containing 5 mM ATP or 10 µM Nig. 1 h later, the cell supernatants were collected for IL-1β detection.
Therefore, the relative change in the amount of IL-1β release may directly reflect NLRP3 inhibitory effect.

T1 sequence (Q8R4B8 whole entry): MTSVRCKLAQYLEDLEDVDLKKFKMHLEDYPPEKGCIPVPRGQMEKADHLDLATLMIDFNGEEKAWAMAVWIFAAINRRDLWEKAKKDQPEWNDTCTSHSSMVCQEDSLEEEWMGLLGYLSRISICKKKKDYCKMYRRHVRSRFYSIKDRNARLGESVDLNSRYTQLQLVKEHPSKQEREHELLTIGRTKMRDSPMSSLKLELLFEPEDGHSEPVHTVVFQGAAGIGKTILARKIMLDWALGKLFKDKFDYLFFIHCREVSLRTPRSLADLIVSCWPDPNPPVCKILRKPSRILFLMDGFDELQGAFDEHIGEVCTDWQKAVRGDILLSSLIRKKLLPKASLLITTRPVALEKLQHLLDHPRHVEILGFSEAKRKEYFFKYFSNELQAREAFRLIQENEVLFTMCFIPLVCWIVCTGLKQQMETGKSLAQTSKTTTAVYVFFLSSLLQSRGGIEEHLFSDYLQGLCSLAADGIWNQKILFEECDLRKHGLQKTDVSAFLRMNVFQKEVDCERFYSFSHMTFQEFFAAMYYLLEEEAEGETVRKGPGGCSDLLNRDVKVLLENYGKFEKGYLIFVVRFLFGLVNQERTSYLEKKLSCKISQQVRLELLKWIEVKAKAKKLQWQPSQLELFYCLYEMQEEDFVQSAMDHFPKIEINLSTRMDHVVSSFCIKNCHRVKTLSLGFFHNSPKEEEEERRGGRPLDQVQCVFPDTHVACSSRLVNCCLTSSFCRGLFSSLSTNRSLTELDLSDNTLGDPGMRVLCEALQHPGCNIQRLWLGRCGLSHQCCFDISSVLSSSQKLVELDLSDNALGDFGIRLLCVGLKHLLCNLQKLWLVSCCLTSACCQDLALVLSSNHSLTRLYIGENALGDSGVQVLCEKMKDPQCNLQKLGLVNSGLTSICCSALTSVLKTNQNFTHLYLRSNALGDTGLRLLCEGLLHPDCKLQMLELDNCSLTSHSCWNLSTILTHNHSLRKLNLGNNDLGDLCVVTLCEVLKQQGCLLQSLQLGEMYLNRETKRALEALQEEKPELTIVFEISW
T2 sequence (Q96P20 whole entry): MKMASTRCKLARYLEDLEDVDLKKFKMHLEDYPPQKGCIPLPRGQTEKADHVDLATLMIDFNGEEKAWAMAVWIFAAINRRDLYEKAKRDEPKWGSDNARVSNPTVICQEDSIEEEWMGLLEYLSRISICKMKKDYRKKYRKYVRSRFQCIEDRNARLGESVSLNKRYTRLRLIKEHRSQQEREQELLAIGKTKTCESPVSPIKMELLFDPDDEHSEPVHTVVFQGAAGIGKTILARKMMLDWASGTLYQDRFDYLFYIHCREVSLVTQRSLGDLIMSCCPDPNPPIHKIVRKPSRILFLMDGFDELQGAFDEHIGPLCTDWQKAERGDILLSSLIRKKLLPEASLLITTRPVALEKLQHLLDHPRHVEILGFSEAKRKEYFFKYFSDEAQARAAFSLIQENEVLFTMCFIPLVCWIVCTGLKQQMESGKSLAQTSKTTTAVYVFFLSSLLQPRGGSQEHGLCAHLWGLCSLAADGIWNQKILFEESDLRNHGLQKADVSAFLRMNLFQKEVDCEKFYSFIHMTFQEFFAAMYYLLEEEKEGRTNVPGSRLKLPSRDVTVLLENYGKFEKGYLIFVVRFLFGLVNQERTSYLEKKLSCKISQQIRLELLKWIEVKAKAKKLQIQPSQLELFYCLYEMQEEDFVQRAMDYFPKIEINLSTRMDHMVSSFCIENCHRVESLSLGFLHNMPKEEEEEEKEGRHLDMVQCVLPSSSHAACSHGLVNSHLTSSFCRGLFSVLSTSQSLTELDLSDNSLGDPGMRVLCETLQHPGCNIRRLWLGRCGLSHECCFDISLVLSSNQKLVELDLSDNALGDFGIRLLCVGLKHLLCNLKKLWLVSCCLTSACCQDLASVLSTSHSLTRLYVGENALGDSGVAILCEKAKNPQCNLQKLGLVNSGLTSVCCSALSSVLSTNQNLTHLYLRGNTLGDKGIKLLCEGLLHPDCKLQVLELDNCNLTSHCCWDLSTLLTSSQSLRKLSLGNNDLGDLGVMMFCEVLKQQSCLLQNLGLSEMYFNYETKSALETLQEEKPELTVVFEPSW

SMILES	inhibition at 10 µM [1]	level of IL-1β in ascites compared with the model group [2]	half-life [3]	AUC [3]	IC50 [4]	IC50 [5]	inhibition at 1 µM [6]
CN(C)Cc1cccc(S(=O)(=O)NC(=O)Nc2c3c(cc4c2CCC4)CCC3)c1N [Example 19, 2-amino-3-((dimethylamino)methyl)-N-((1,2,3,5,6,7-hexahydro-s-indacen-4-yl)carbamoyl)benzenesulfonamide]	≥ 70%	significantly inhibited	231 min	56500 ng·h/mL	1270 nM	278 nM	> 80%
COc1ccc(S(=O)(=O)NC(=O)Nc2c3c(cc4c2CCC4)CCC3)cc1CN(C)C [Example 3, 3-((dimethylamino)methyl)-N-((1,2,3,5,6,7-hexahydro-s-indacen-4-yl)carbamoyl)-4-methoxybenzenesulfonamide]	≥ 70%	–	–	–	–	–	> 80%
CN(C)Cc1cc(S(=O)(=O)NC(=O)Nc2c3c(cc4c2CCC4)CCC3)ccc1O [Example 5, 3-((dimethylamino)methyl)-N-((1,2,3,5,6,7-hexahydro-s-indacen-4-yl)carbamoyl)-4-hydroxybenzenesulfonamide]	≥ 70%	–	116 min	33900 ng·h/mL	–	–	> 80%
